Measured values as given in article PMC7840129, “Structural basis for heme-dependent NCoR binding to the transcriptional repressor REV-ERBβ” (Science Advances, 2021).

Tests used:
[1] = test system: REV-ERBβ LBD; assay: DSSO chemical cross-linking, SDS-PAGE; type: binding, human; settings: LBD-only samples, 600 μM DSSO, 25°C, 45 min
Method: To further support this stoichiometry, we performed chemical cross-linking analysis of apo or heme-bound LBD ± RID using DSSO (disuccinimidyl sulfoxide), a cross-linker that cross-links lysine residues as well as serine, threonine, and tyrosine residues (fig. S9, A and B).
(§1) Apo or heme-bound REV-ERBβ LBD and NCoR RID protein samples were cross-linked in Hepes gel filtration buffer [25 mM Hepes (pH 7.5) at room temperature, 50 mM NaCl, and 0.5 mM TCEP]. Non–cross-linked negative controls were generated using the same procedure without the addition of DSSO (Thermo Fisher Scientific). Samples included 4 μM apo LBD with or without 2 μM RID and 4 μM heme-bound LBD with or without 2 μM RID; complexes were preincubated 1 hour on ice. Reactions were initiated by spiking DSSO in DMSO at a final concentration of 600 μM in 50-μl solutions. The final molar ratio of cross-linker:protein was 100:1. The reactions were incubated at 25°C for 45 min before being quenched by the addition of tris (pH 8.0) to a final concentration of 50 mM. Each cross-link reaction was done in triplicate, and the reaction replicates were pooled after quenching. Samples (10 μl) were loaded for SDS-PAGE analysis with Coomassie staining to confirm the presence of cross-linked protein. […]

[2] = test system: REV-ERB LBD interaction with NCoR ID motif peptides; settings: REV-ERBs; cited from earlier work
Source text: The iron-centered porphyrin heme has been identified as the endogenous REV-ERB ligand ([7], [8]). […] Structural data would help establish that heme directly produces a REV-ERB LBD conformation that enhances NCoR binding. However, published biochemical and structural studies contradict cell-based evidence ([7]–[11]).

[3] = test system: REV-ERB LBD interaction with NCoR ID motif peptides; assay: fluorescence-based peptide binding assays; settings: fig. S2A; authors attribute it to heme quenching artifact
[4] = heme fluorescence quenching; settings: fig. S2C
[5] = test system: REV-ERBβ LBD / NCoR RID; assay: Chemical cross-linking mass spectrometry (XL-MS); type: binding; settings: LBD:RID complexes ± heme; DSSO; significant at Padj < 0.05
Method: as §1, with “protein. The remaining cross-linked and non–cross-linked samples were then acetone-precipitated at −20°C overnight, and the protein was pelleted by centrifugation at 16,000 relative centrifugal force (rcf) for 5 min at 4°C. After decanting, the pellets were dried for 15 min at room temperature before being resuspended in 12.5 μl of resuspension buffer [50 mM ammonium bicarbonate and 8 M urea (pH 8.0)].” for “protein.”

C=CC1=C(C)c2cc3[n-]c(cc4[n-]c(cc5nc(cc1n2)C(C)=C5C=C)c(C)c4CCC(=O)O)c(CCC(=O)O)c3C.[Fe+2] [heme]
LBD dimer band by cross-linking SDS-PAGE, effect of heme [1]: weak dimer band in LBD-only samples that was unchanged by heme
displacement of NCoR ID peptides in fluorescence-based biochemical assays [2]: dose-dependently displace NCoR interaction domain (ID) peptides from the REV-ERBs
effect of heme on ID peptide interaction in fluorescence-based assays [3]: dose-dependently reduces REV-ERB LBD interaction with peptides derived from NCoR ID motifs
heme quenching of fluorophores [4]: quenches fluorophores across a broad range of emissions
effect of heme on cross-links [5]: reduced LBD-LBD and LBD-RID cross-links, particularly for residues in the AF-2 surface
